Measurements: the NIST ThermoML archive (doi:10.1021/je700236c)
“And” between values parts separate entries of the source, which are not always exact repeats. Equal values may be shown once. ± gives the expanded uncertainty stated by the source.

Conditions: Gas, Buoyancy - hydrostatic balance with magnetic suspension - two sinkers

CC(F)(F)F [1,1,1-trifluoroethane]
Conditions | mass density
283.15 K, 203.6 kPa | 7.588 ± 0.011 kg/m3 and 7.589 ± 0.011 kg/m3
283.15 K, 399.9 kPa | 15.605 ± 0.014 kg/m3
283.15 K, 505.8 kPa | 20.278 ± 0.019 kg/m3 and 20.282 ± 0.019 kg/m3
283.15 K, 605 kPa | 24.935 ± 0.023 kg/m3 and 24.932 ± 0.023 kg/m3
283.15 K, 651.6 kPa | 27.227 ± 0.026 kg/m3
283.15 K, 651.7 kPa | 27.238 ± 0.026 kg/m3
283.15 K, 700.8 kPa | 29.729 ± 0.028 kg/m3 and 29.728 ± 0.028 kg/m3
283.15 K, 750.8 kPa | 32.363 ± 0.031 kg/m3 and 32.361 ± 0.031 kg/m3
283.15 K, 781.5 kPa | 34.03 ± 0.033 kg/m3
283.15 K, 781.6 kPa | 34.039 ± 0.033 kg/m3
283.15 K, 801.7 kPa | 35.15 ± 0.034 kg/m3
283.15 K, 801.8 kPa | 35.164 ± 0.034 kg/m3
283.15 K, 820.2 kPa | 36.196 ± 0.035 kg/m3
283.15 K, 820.3 kPa | 36.205 ± 0.035 kg/m3
293.15 K, 201.7 kPa | 7.219 ± 0.011 kg/m3
293.15 K, 201.8 kPa | 7.222 ± 0.011 kg/m3
293.15 K, 400.3 kPa | 14.916 ± 0.014 kg/m3 and 14.915 ± 0.014 kg/m3
293.15 K, 599.3 kPa | 23.356 ± 0.021 kg/m3 and 23.36 ± 0.021 kg/m3
293.15 K, 701.3 kPa | 28.031 ± 0.026 kg/m3 and 28.028 ± 0.026 kg/m3
293.15 K, 798.2 kPa | 32.729 ± 0.031 kg/m3 and 32.732 ± 0.031 kg/m3
293.15 K, 898.7 kPa | 37.925 ± 0.035 kg/m3 and 37.921 ± 0.035 kg/m3
293.15 K, 951 kPa | 40.774 ± 0.041 kg/m3
293.15 K, 999.6 kPa | 43.532 ± 0.044 kg/m3
293.15 K, 1030.9 kPa | 45.365 ± 0.046 kg/m3 and 45.355 ± 0.046 kg/m3
293.15 K, 1048.7 kPa | 46.429 ± 0.048 kg/m3
293.15 K, 1048.8 kPa | 46.429 ± 0.048 kg/m3
293.15 K, 1071 kPa | 47.788 ± 0.05 kg/m3
293.15 K, 1071.1 kPa | 47.784 ± 0.05 kg/m3
293.15 K, 1089 kPa | 48.896 ± 0.051 kg/m3 and 48.901 ± 0.051 kg/m3
303.15 K, 200 kPa | 6.895 ± 0.011 kg/m3 and 6.903 ± 0.011 kg/m3
303.15 K, 400.9 kPa | 14.305 ± 0.014 kg/m3 and 14.313 ± 0.014 kg/m3
303.15 K, 600.3 kPa | 22.265 ± 0.02 kg/m3
303.15 K, 600.4 kPa | 22.265 ± 0.02 kg/m3
303.15 K, 801.6 kPa | 31.034 ± 0.029 kg/m3 and 31.031 ± 0.029 kg/m3
303.15 K, 1001 kPa | 40.662 ± 0.039 kg/m3 and 40.666 ± 0.039 kg/m3
303.15 K, 1099.9 kPa | 45.879 ± 0.047 kg/m3 and 45.88 ± 0.047 kg/m3
303.15 K, 1197.3 kPa | 51.364 ± 0.053 kg/m3 and 51.363 ± 0.053 kg/m3
303.15 K, 1249.2 kPa | 54.458 ± 0.057 kg/m3
303.15 K, 1299.5 kPa | 57.578 ± 0.061 kg/m3 and 57.581 ± 0.061 kg/m3
303.15 K, 1340.6 kPa | 60.231 ± 0.067 kg/m3 and 60.229 ± 0.067 kg/m3
303.15 K, 1369.8 kPa | 62.181 ± 0.071 kg/m3 and 62.183 ± 0.071 kg/m3
303.15 K, 1401.5 kPa | 64.363 ± 0.073 kg/m3 and 64.364 ± 0.073 kg/m3
303.15 K, 1423.7 kPa | 65.925 ± 0.075 kg/m3
303.15 K, 1423.9 kPa | 65.952 ± 0.076 kg/m3
313.15 K, 201.5 kPa | 6.696 ± 0.011 kg/m3
313.15 K, 201.8 kPa | 6.718 ± 0.011 kg/m3
313.15 K, 205.1 kPa | 6.831 ± 0.011 kg/m3 and 6.828 ± 0.011 kg/m3
313.15 K, 206.2 kPa | 6.869 ± 0.011 kg/m3
313.15 K, 401.6 kPa | 13.776 ± 0.013 kg/m3
313.15 K, 401.7 kPa | 13.775 ± 0.013 kg/m3
313.15 K, 600.3 kPa | 21.275 ± 0.019 kg/m3 and 21.282 ± 0.019 kg/m3
313.15 K, 800.3 kPa | 29.41 ± 0.027 kg/m3 and 29.413 ± 0.027 kg/m3
313.15 K, 999.1 kPa | 38.197 ± 0.036 kg/m3 and 38.204 ± 0.036 kg/m3
313.15 K, 1200.3 kPa | 47.988 ± 0.048 kg/m3 and 48.002 ± 0.048 kg/m3
313.15 K, 1400.2 kPa | 58.893 ± 0.063 kg/m3 and 58.909 ± 0.063 kg/m3
313.15 K, 1500.8 kPa | 64.963 ± 0.072 kg/m3 and 64.977 ± 0.072 kg/m3
313.15 K, 1540.9 kPa | 67.443 ± 0.078 kg/m3 and 67.442 ± 0.078 kg/m3
313.15 K, 1598 kPa | 71.29 ± 0.083 kg/m3
313.15 K, 1598.1 kPa | 71.312 ± 0.083 kg/m3
313.15 K, 1648.3 kPa | 74.652 ± 0.088 kg/m3 and 74.647 ± 0.088 kg/m3
313.15 K, 1701.3 kPa | 78.498 ± 0.097 kg/m3 and 78.51 ± 0.097 kg/m3
313.15 K, 1740.8 kPa | 81.517 ± 0.1 kg/m3 and 81.508 ± 0.1 kg/m3
313.15 K, 1771.1 kPa | 83.916 ± 0.11 kg/m3 and 83.908 ± 0.11 kg/m3
313.15 K, 1793.2 kPa | 85.73 ± 0.12 kg/m3
313.15 K, 1794.4 kPa | 85.811 ± 0.11 kg/m3

FCF [difluoromethane]
Conditions | mass density
313.15 K, 201.8 kPa | 4.12 ± 0.011 kg/m3
313.15 K, 201.9 kPa | 4.121 ± 0.011 kg/m3
313.15 K, 490.8 kPa | 10.336 ± 0.012 kg/m3 and 10.342 ± 0.012 kg/m3
313.15 K, 791 kPa | 17.275 ± 0.015 kg/m3 and 17.277 ± 0.015 kg/m3
313.15 K, 996.6 kPa | 22.349 ± 0.021 kg/m3 and 22.355 ± 0.021 kg/m3
313.15 K, 1203.3 kPa | 27.759 ± 0.024 kg/m3 and 27.77 ± 0.024 kg/m3
313.15 K, 1396.5 kPa | 33.148 ± 0.033 kg/m3 and 33.159 ± 0.033 kg/m3
313.15 K, 1602.9 kPa | 39.322 ± 0.035 kg/m3 and 39.331 ± 0.035 kg/m3
313.15 K, 1801.8 kPa | 45.76 ± 0.041 kg/m3
313.15 K, 1801.9 kPa | 45.748 ± 0.041 kg/m3
313.15 K, 1998.1 kPa | 52.687 ± 0.047 kg/m3 and 52.676 ± 0.047 kg/m3
313.15 K, 2103.6 kPa | 56.702 ± 0.051 kg/m3 and 56.692 ± 0.051 kg/m3
313.15 K, 2201.5 kPa | 60.637 ± 0.072 kg/m3 and 60.629 ± 0.072 kg/m3
313.15 K, 2251 kPa | 62.72 ± 0.056 kg/m3 and 62.711 ± 0.056 kg/m3
313.15 K, 2298.1 kPa | 64.762 ± 0.058 kg/m3 and 64.748 ± 0.058 kg/m3
313.15 K, 2355.7 kPa | 67.348 ± 0.061 kg/m3
313.15 K, 2355.8 kPa | 67.343 ± 0.061 kg/m3
313.15 K, 2402.7 kPa | 69.541 ± 0.09 kg/m3
313.15 K, 2403 kPa | 69.545 ± 0.09 kg/m3
313.15 K, 2435 kPa | 71.084 ± 0.064 kg/m3
313.15 K, 2435.1 kPa | 71.095 ± 0.064 kg/m3
313.15 K, 2450.5 kPa | 71.838 ± 0.065 kg/m3
313.15 K, 2450.6 kPa | 71.855 ± 0.065 kg/m3
313.15 K, 2472 kPa | 72.903 ± 0.066 kg/m3 and 72.918 ± 0.066 kg/m3
323.15 K, 207.9 kPa | 4.101 ± 0.011 kg/m3 and 4.103 ± 0.011 kg/m3
323.15 K, 499.2 kPa | 10.125 ± 0.012 kg/m3 and 10.143 ± 0.012 kg/m3 and 10.132 ± 0.012 kg/m3
323.15 K, 801.1 kPa | 16.793 ± 0.015 kg/m3
323.15 K, 801.2 kPa | 16.794 ± 0.015 kg/m3
323.15 K, 998.3 kPa | 21.387 ± 0.019 kg/m3 and 21.393 ± 0.019 kg/m3
323.15 K, 1095.2 kPa | 23.732 ± 0.024 kg/m3
323.15 K, 1200.3 kPa | 26.337 ± 0.028 kg/m3
323.15 K, 1200.4 kPa | 26.341 ± 0.028 kg/m3
323.15 K, 1397.4 kPa | 31.424 ± 0.03 kg/m3 and 31.416 ± 0.03 kg/m3
323.15 K, 1590.6 kPa | 36.664 ± 0.046 kg/m3 and 36.67 ± 0.046 kg/m3
323.15 K, 1797.2 kPa | 42.644 ± 0.061 kg/m3 and 42.658 ± 0.061 kg/m3
323.15 K, 2004.9 kPa | 49.091 ± 0.079 kg/m3 and 49.105 ± 0.079 kg/m3
323.15 K, 2200.6 kPa | 55.637 ± 0.064 kg/m3 and 55.653 ± 0.064 kg/m3
323.15 K, 2402.3 kPa | 62.99 ± 0.077 kg/m3 and 62.978 ± 0.077 kg/m3
323.15 K, 2596.1 kPa | 70.738 ± 0.17 kg/m3 and 70.733 ± 0.17 kg/m3
323.15 K, 2699 kPa | 75.19 ± 0.21 kg/m3
323.15 K, 2699.1 kPa | 75.207 ± 0.21 kg/m3
323.15 K, 2799 kPa | 79.805 ± 0.29 kg/m3 and 79.816 ± 0.26 kg/m3
323.15 K, 2802.9 kPa | 80.005 ± 0.29 kg/m3 and 80.017 ± 0.33 kg/m3
323.15 K, 2900.6 kPa | 84.82 ± 0.28 kg/m3 and 84.839 ± 0.28 kg/m3
323.15 K, 2901.2 kPa | 84.882 ± 0.28 kg/m3 and 84.872 ± 0.28 kg/m3
323.15 K, 2947 kPa | 87.258 ± 0.31 kg/m3 and 87.244 ± 0.31 kg/m3
323.15 K, 2960.3 kPa | 87.971 ± 0.33 kg/m3 and 87.99 ± 0.33 kg/m3
323.15 K, 3002.2 kPa | 90.24 ± 0.41 kg/m3
323.15 K, 3002.3 kPa | 90.261 ± 0.38 kg/m3
323.15 K, 3010.2 kPa | 90.716 ± 0.38 kg/m3 and 90.73 ± 0.38 kg/m3
323.15 K, 3041.1 kPa | 92.478 ± 0.39 kg/m3
323.15 K, 3041.2 kPa | 92.495 ± 0.39 kg/m3
323.15 K, 3074.6 kPa | 94.445 ± 0.4 kg/m3 and 94.453 ± 0.4 kg/m3
323.15 K, 3099.5 kPa | 95.942 ± 0.43 kg/m3 and 95.952 ± 0.43 kg/m3
323.15 K, 3125.5 kPa | 97.558 ± 0.44 kg/m3
323.15 K, 3125.6 kPa | 97.549 ± 0.44 kg/m3
323.15 K, 3134.2 kPa | 98.084 ± 0.42 kg/m3
